{"source": "patent US12123023B2", "about": "“Methods for generating stem cell-derived β cells and methods of use thereof” (President and Fellows of Harvard College, priority 2014, dated 2024)", "test_system": "SC-β cells", "assay": "FACS analysis of marker expression in cells differentiated to SC-β cells (end of Step 6, versus DMSO control)", "format": "cell-based, human", "excerpt": "FIG. 4A is a schematic illustrating an exemplary method for generating SC-β cells according to an embodiment of the present invention, e.g., by contacting a cell population directed to differentiate to SC-β cells under conditions that promote cell clustering with an agent that decreases the level and/or activity of rho-associated protein kinase (Rock inhibitor), a TGF-β superfamily member (e.g., Activin A), and a protein kinase inhibitor (e.g., staurosporine) during the steps indicated.\nThe SC-β cells generated in accordance with the methods of the present invention can be used in various assays to identify novel drugs that improve β cell function, survival, or proliferation, cell therapies (e.g., for treating diabetes and/or metabolic disorders), and in the construction of artificial islets and/or an artificial pancreas.", "key": {"[1]": {"settings": "S4 cells contacted during Step 5, cells at end of Step 6, versus control (DMSO)"}}}
{"smiles": "CN[C@@H]1C[C@H]2O[C@@](C)([C@@H]1OC)n1c3ccccc3c3c4c(c5c6ccccc6n2c5c31)C(=O)NC4", "note": "[staurosporine]", "values": [{"measurement": "endocrine population purity (FACS)", "setting": "[1]", "value": "near pure endocrine population"}, {"measurement": "percentage of NKX6.1+, C-Peptide+ cells (FACS)", "setting": "[1]", "value": "higher percentage of NKX6.1+, C-Peptide+ cells"}, {"measurement": "marker expression at differentiation stages S4, S5, S6 (FACS)", "setting": "S4 cells contacted during Step 5 together with the Rock inhibitor, in the absence of Activin A", "value": "maintain marker expression"}]}
